Here are results for eleven compounds from patent US4766147A, “Novel 5-membered cyclic compounds, process for production thereof, and pharmaceutical use thereof” (priority 1982, dated 1988).

The test system of data set [1] is L1210 leukemia cells. Briefly: Inhibiting proliferation of L1210 leukemia cell. Format: cell-based. The conditions noted are these: Mus musculus, 96 h, 1×10^5 cells/ml, RPMI with 10% FCS, 37° C., 4 days, trypan blue. The procedure:
Measurement of the Action of Inhibiting Proliferation of L1210 Leukemia Cell
L1210 leukemia cells were added to an RPMI medium containing 10% FCS (fetal calf serum), and the concentration of the cells was adjusted to 1×10^5 cells/ml. Each of the test compounds shown in Table 5 was dissolved in 99.5% ethanol. Prior to use, the final concentration of the ethanol solution was adjusted to less than 0.1%, and it was added to the culture medium. The culture medium was then maintained at 37° C. in a stationary condition for 4 days. After the cultivation, the number of surviving cells was measured by dyeing with trypan blue. As a control, 0.1% ethanol was used. A dose-reaction curve was plotted from the ratios of proliferation against the control, and IC50 was determined.

Data set [2] has as its system Ehrlich ascites carcinoma cells. In words: Antitumor effect on Ehrlich ascites carcinoma in ICR mice. Format: in vivo. The conditions noted are these: 30 mg/kg/day i.p. (methyl ester) or 20 mg/kg/day i.p. (12-epimer) for 5 days; for average number of days of survival: from 24 hours after tumor inoculation. Here is the method: Measurement of the Antitumor Effect On Ehrich Ascites Carcinoma
1×10^5 Ehrlich ascites carcinoma cells were intraperitoneally administred to ICR mice. After the lapse of 24 hours, 30 mg/kg/day of 7(E)-7,8-dehydroprostaglandin A1 methyl ester and 20 mg/kg/day of its 12-epimer were each intraperitoneally administered to the mice for 5 days. The periods of survival of these animals were examined.

Data set [3] is described as follows: Cyto protection: cytotoxicity on stomach epithelial cells. Format: cell-based. The conditions noted are these: stomach epithelial cells; rabbit fetus cells, DME containing 20% FCS; read-out: LD50 Stomach epitherial cells. The procedure: (§1) Measurement of Cyto Protection
(§2) Stomach epithelial cells taken from a rabbit fetus and aortic smooth muscle cells from a rat were used as normal cells, and L1210 leukemia cells were used as cancer cells. The cytotoxicity of each of the compounds shown in Table 6 on the normal cells was xamined.
(§3) Specifically, the stomach epithelial cells were cultivated in DME containing 20% FCS, and the aortic smooth muscle cells were cultivated in MEM containing 10% CS. Each of the test compounds was dissolved in ethanol and added to the culture broth in an amount of 0.1%. The mixture was filtered through a millipore filter.
(§4) The cytotoxicities LD50) of each of the test compounds on the stomach epithelial cells and the aortic smooth muscle cells were determined. Furthermore, from the LFD50 values, the safety coefficient (LD50 on the normal cells/LD50 on the L1210 cells) was calculated, and the results are also shown in Table 6.

A short description of data set [4]: Cyto protection: cytotoxicity on aortic smooth muscle cells. The conditions noted are these: aortic smooth muscle cells; rat cells, MEM containing 10% CS; read-out: LD50 Aortic smooth muscle cells. Format: cell-based. Here is the method: as §1, §2, §3, §4
In data set [5] the test system is L1210 leukemia cells. In words: Cyto protection: cytotoxicity on L1210 leukemia cells and safety coefficient. In kind it is cell-based, mouse. The conditions noted are these: for Safety coefficient: LD50 on the normal cells/LD50 on the L1210 cells. The procedure: as §1, §2
The cytotoxicities LD50) of each of the test compounds on the stomach epithelial cells and the aortic smooth muscle cells were determined.

The nature of the next data set: Acute toxicity. The conditions noted are these: mouse, in vivo, iv, four weeks old LR strain male mice (SPF). The procedure:
Measurement of Acute Toxicity
The acute toxicity of one typical compound of this invention was measured by a customary method using four weeks old LR strain male mice (SPF).

A further data set deals with Stomach epithelial cells. Briefly: Cyto protection: cytotoxicity on stomach epithelial cells. In kind it is cell-based. The conditions noted are these: rabbit fetus cells, DME containing 20% FCS. Here is the method:
as §1, §2, §3, §4

The test system of data set [6] is aortic smooth muscle cells. Briefly: Cyto protection: cytotoxicity on aortic smooth muscle cells. Format: cell-based. The conditions noted are these: rat cells, MEM containing 10% CS. The procedure:
as §1, §2, §3, §4

Data set [7] relates to mouse leukemia cell L1210. The conditions noted are these: Biochem. Biophys. Res. Commn., 105, 956 (1982); cited from earlier work.

Converted amounts (≈) assume the structure as drawn.

In the data set with L1210 leukemia cells [1], `CCCCCCC=CC1C=CC(=O)C1=CCCCCCC(=O)OC` (stereo not shown) [4-(1-octenyl)-5-(6-methoxycarbonylhexylidene)-2-cyclopentenone] yielded an IC50 of 0.3 µg/mL (≈ 0.902 µM).

As for `CCCCC[C@H](O)/C=C/[C@H]1C=CC(=O)/C1=C/CCCCCC(=O)OC` [(7E)-7,8-dehydro PGA1 methyl ester], in data set [2], the “increase of life span (ILS %) over the control” value stood at 65.8%, the “ratio of survival for more than 60 days” value is 2/6 and the “average number of days of survival” value worked out at 31 ± 1.9 days.

Consider `CCCCC[C@H](O)/C=C/[C@@H]1/C(=C\CCCCCC(=O)O)C(=O)C[C@H]1O` [7(E)-7,8-Dehydroprostaglandin E1], for which the IC50 with L1210 leukemia cells [1] turned out to be 0.7 µg/mL (≈ 1.99 µM).

What is called LD50 is the dose at which mortality reaches 50%. Low readings indicate a more toxic substance, high ones a less toxic substance. Take `CCCCC[C@H](O)/C=C/[C@H]1C=CC(=O)/C1=C/CCCCCC(=O)O` [7(E)-7,8-Dehydroprostaglandin A1]: the IC50 with L1210 leukemia cells [1] is 0.4 µg/mL (≈ 1.2 µM); in the data set on L1210 leukemia cells [5] (Mus musculus, L1210, cancer cells, read-out: LD50 L1210 leukemia cells), 0.2 to 0.3 µg/mL (≈ 0.598 to 0.897 µM). In addition, the CC50 in [3] and in data set [4] was 2 to 5 µg/mL (≈ 5.98 to 14.9 µM) each time. Besides, the Safety coefficient in the data set on L1210 leukemia cells [5] was 6-25. The compound further had an LD50 in “Acute toxicity” of 140 mg/kg.

With `CCCCCC(O)C=CC1C=CC(=O)C1=CCCCCCC(=O)O` (stereo not shown) [12-Epimer of 7(E)-7,8-dehydroprostaglandin A1], the “LD50 Stomach epitherial cells” value with Stomach epithelial cells fell in the range of 1 to 2 µg/mL. Moreover, the “LD50 Aortic smooth muscle cells” value in [6] lay in the range of 1 to 2 µg/mL. Besides, the Safety coefficient in the data set with L1210 leukemia cells [5] is listed as 2.5-10. In addition, the “LD50 L1210 leukemia cells” value with L1210 leukemia cells [5] (cancer cells) fell in the range of 0.2 to 0.4 µg/mL.

In the case of `CCCCC[C@H](O)/C=C/[C@@H]1C=CC(=O)/C1=C/CCCCCC(=O)OC` [12-epi-(7E)-7,8-dehydro PGA1 methyl ester], the IC50 in the data set with L1210 leukemia cells [1] was found to be 0.2 µg/mL (≈ 0.574 µM). In addition, in [2], the “increase of life span (ILS %) over the control” value was 76.5%, the “ratio of survival for more than 60 days” value is 1/6 and the “average number of days of survival” value was found to be 33.0 ± 9.8 days.

As to `CCCCC[C@H](O)/C=C/[C@H]1C(=O)C[C@H](O)[C@@H]1C/C=C\CCCC(=O)O` [PGD2], the “IC50 of PGD2 on L1210 cell” value in data set [7] is given as 2.4 micrograms/ml.

For the compound `CCCCC1C=CC(=O)C1=CCCCCCC(=O)OC` (stereo not shown) [4-Butyl-5-(6-methoxycarbonylhexylidene)-2-cyclopentenone], the IC50 with L1210 leukemia cells [1] is 0.3 µg/mL (≈ 1.08 µM).

As to `COC12C(COC(N)=O)C3=C(C(=O)C(C)=C(N)C3=O)N1CC1NC12` (stereo not shown) [Mytomycin C, reference compound], the values for the CC50 in [3] and in [4] were 0.01 to 0.02 µg/mL (≈ 0.0299 to 0.0598 µM) and 0.01 µg/mL (≈ 0.0299 µM), respectively.

In the data set with L1210 leukemia cells [1], `COC(=O)CCCC#CC(O)C1C(=O)C=CC1C=CC(O)C1CCCC1` (stereo not shown) [4-(3-hydroxy-3-cyclopentyl-1-propenyl)-5-(1-hydroxy-6-methoxycarbonyl-2-hexyn-1-yl)-2-cyclopentenone] came in with an IC50 of 0.2 µg/mL (≈ 0.555 µM).

For the compound `COC(=O)CCCC#CC=C1C(=O)C=CC1C=CC(O)C1CCCC1` (stereo not shown) [4-(3-Hydroxy-3-cyclopentyl-1-propenyl)-5-(6-methoxycarbonyl-2-hexynylidene)-2-cyclopentenone], the IC50 with L1210 leukemia cells [1] was determined as 0.3 µg/mL (≈ 0.876 µM).
